Patent US20150196533A1, “METHOD FOR CONCURRENT TREATMENT OF PAIN AND DEPRESSION” (The General Hospital Corporation, priority 2012, published 2015)
Entries after “also recorded” stand apart in the source; their conditions may differ.

Key:
Assay type in all cases: in vivo, rat
[1] = system: Wistar rats with CFA-induced arthritis; experiment: Nociceptive tests (von Frey, Hargreaves) in rats with CFA-induced hindpaw monoarthritis; conditions: for nociceptive behavior (mechanical allodynia, ipsilateral hindpaw; FIG. 5A): intraperitoneal, 10 mg/day, twice daily for 14 consecutive days after CFA
Protocol: Hindpaw monoarthritis was induced by the injection of CFA (50 μl) into a unilateral tibio-tarsal joint cavity under brief isoflurane anesthesis (Butler, S. H., et al, and Weil-Fugazza, J. 1992. A limited arthritic model for chronic pain studies in the rat. Pain 48:73-81). Animals in sham groups received the injection of 50 μl Incomplete Freund's Adjuvant.
(§1) Under brief isoflurane anesthesia, a guide cannula (26 gauge, Plasticsone) was implanted just above the hippocampus (AP: −3.6 mm; left: +2.0 mm from Bregma; depth: −4.0 mm from skin) (Paxinos, G., and Watson, C. 1998. The rat brain in stertaxic coordinates. New York: Academic Press). An injection needle (33 gauge, Plasticsone) was inserted through the guide cannula and drug solution or vehicle (0.5 μl) was slowly injected over 5 min using a Hamilton syringe. Locations of the cannula placement were confirmed at the time of tissue harvest (data not shown).
(§2) Animals were habituated to a test setting (30-min session) for three consecutive days. Thermal withdrawal threshold was assessed using the Hargreaves' apparatus and method (Hargreaves, K., et al., 1988. A new and sensitive method for measuring thermal nociception in cutaneous hyperalgesia. Pain 32:77-88). Mechanical withdrawal threshold was assessed using von Frey filaments (Tal, M., and Bennett, G. J. 1994. Extra-territorial pain in rats with a peripheral mononeuropathy: mechano-hyperalgesia and mechano-allodynia in the territory of an uninjured nerve. Pain 57:375-382).

[2] = system: Wistar rats with CFA-induced arthritis; experiment: Depressive behavior (forced swim test) in rats with CFA-induced hindpaw monoarthritis; conditions: for depressive behavior (immobility time in FST; FIG. 6H): 100 mg/kg intraperitoneally once on day 14, same arthritic rats, P>0.05
IL-6 = experiment: Plasma IL-6 level (ELISA) in rats with nociceptive and depressive behavior; conditions: systemic treatment; rats with both nociceptive and depressive behavior; data not shown
Protocol: Under pentobarbital anesthesia, whole blood was collected from the left ventricle of the heart and placed in a serum collection tube (BD Vacutainer). Blood clots were formed after 30-60 min at room temperature and the tube was centrifuged for 10 min at 12,000 rpm. ELISA Quantikine kit (R&D Systems) and IDO ELISA kit (TSZ ELISA) was used according to the manufacturer's instructions. Optical density of samples was read at wavelengths of 450 & 570 nm using a microplate reader (Synergy HT, Bio-TEK®). A standard curve, provided by the manufacturer, was generated for each set of samples assayed and the concentration of each sample was obtained according to the standard curve.

IDO1/TPH2 = IDO1/TPH2 expression in the hippocampus of CFA rats (Example 11); conditions: intraperitoneally once per day, day 1 to day 14 (1-MT 10 mg, fluoxetine 5 mg); tissue taken 7 days after discontinuation
From the text: Rats were divided into five groups: 1) sham-operated rats treated with a vehicle (Sham), 2) CFA-induced hindpaw pain treated with vehicle (C-V). […] Each treatment was given intraperitoneally once per day from day 1 to day 14. Hippocampal tissue samples were taken after the last behavioral tests at 7 days after discontinuation of the corresponding drug treatment.

naive rats = experiment: Intra-hippocampal microinjection in naive rats: nociceptive and depressive behavior
Protocol: as §1, §2
FST was performed according to the original method by Porsolt et al (Porsolt, R. D., Le, P. M., and Jalfre, M. 1977. Depression: a new animal model sensitive to antidepressant treatments. Nature 266:730-732). The total duration of immobility (non-swimming) within a 5-min session was recorded as immobility scores (in seconds) and compared among groups.

IDO1 [3] = experiment: Intra-hippocampal microinjection in naive rats: hippocampal IDO1 mRNA (real-time PCR); conditions: intra-hippocampal microinjection alone, naive rats; P>0.05
Protocol: as §1
Total RNA was isolated from hippocampal samples using TRIzol reagent (Invitrogen). Four μg of total RNA was used to synthesize the first strand cDNA using SuperScript III kit (Invitrogen). Four μl of cDNA was put into 20 μl vessel with 1 μl of 20× TaqMan Gene Expression Assay. Taqman Gene Expression Assays (Applied Biosystems) containing primers and a Taqman probe were used to quantify each gene of interest. The genes examined were IL-6 (Rn01410330 m1, M26744.1) and IDO1 (Rn00576778 m1, AF312699.1) for rats and IL-6 (Mm00446190 m1, X54542.1) and IDO1 (Mm00492586 m1, M69109.1) for mice. […] The RNA expression of GAPDH was measured as control.

IDO1 [4] = experiment: Hippocampal IDO1 expression (Western blot, real-time PCR) in rats with CFA-induced arthritis; conditions: 100 mg/kg intraperitoneally once on day 14, same arthritic rats, P>0.05
Protocol: Rats were sacrificed under pentobarbital anesthesia.
Total RNA was isolated from hippocampal samples using TRIzol reagent (Invitrogen). Four μg of total RNA was used to synthesize the first strand cDNA using SuperScript III kit (Invitrogen). Four μl of cDNA was put into 20 μl vessel with 1 μl of 20× TaqMan Gene Expression Assay. Taqman Gene Expression Assays (Applied Biosystems) containing primers and a Taqman probe were used to quantify each gene of interest. […] The reaction was performed in duplicate with the following conditions: denaturing at 95° C. for 30 s, annealing at 60° C. for 2 min, extension at 68° C. for 2 min for 40 cycles using a 7300 Real-Time PCR System (Applied Biosystems). The RNA expression of GAPDH was measured as control.

[5] = 100 mg/kg intraperitoneally once on day 14, examined 1 hr after, arthritic rats, P<0.05 vs vehicle

## Cn1cc(C[C@H](N)C(=O)O)c2ccccc21 [1-MT, L-1-methyl-tryptophan]
[1]; intra-hippocampal microinjection, 5 μg in 0.5 μl, once daily x 7 d, contralateral to arthritic hindpaw, P<0.05
  nociceptive behavior (thermal hyperalgesia, ipsilateral hindpaw; FIG. 5C): attenuated thermal hyperalgesia
[1]; intra-hippocampal microinjection
  behaviors in sham control rats: without changing behaviors in sham control rats
[1]; arthritic rats, P<0.05 vs vehicle
  nociceptive behavior (mechanical allodynia, ipsilateral hindpaw; FIG. 5A): significantly attenuated
[1]; arthritic rats, P<0.05 vs vehicle, listed as L-1-MT
  nociceptive behavior (mechanical allodynia, ipsilateral hindpaw; FIG. 5A): attenuated mechanical allodynia
[1]; systemic (intraperitoneal) treatment alone
  behaviors in sham control rats: did not alter behaviors in sham controls rats
[2]; intra-hippocampal microinjection, 5 μg in 0.5 μl, once daily x 7 d, P<0.05
  depressive behavior (immobility time in forced swimming test; FIG. 5D): attenuated; also recorded: reduced the immobility time in forced swimming test
[2]; intraperitoneal, 10 mg/day, twice daily for 14 consecutive days after CFA, arthritic rats, P<0.05 vs vehicle
  depressive behavior (immobility time in forced swimming test; FIG. 5B): significantly attenuated; also recorded: improved the immobility time in forced swimming test
IL-6
  elevation of the plasma IL-6 level: did not prevent elevation of the plasma IL-6 level
IDO1/TPH2
  IDO up-regulation in the hippocampus: prevented the IDO up-regulation

## N#C/C(=C/c1ccc(O)c(O)c1)C(=O)NCc1ccccc1 [AG490]
Naive rats; 5 μg once daily x 7 d co-administered with IL-6 into the hippocampus of naive rats, each P<0.05
  IL-6 effects (mechanical allodynia, thermal hyperalgesia, depressive behavior, hippocampal IDO1 mRNA; FIG. 9E-H): prevented; also recorded: blocked
Naive rats; intra-hippocampal microinjection alone, naive rats, P>0.05
  baseline behavioral response: had no effect
IDO1 [3]
  IDO1 mRNA expression: had no effect

## CNCCC(Oc1ccc(C(F)(F)F)cc1)c1ccccc1 (stereo not shown) [SSRI, fluoxetine]
IDO1/TPH2
  IDO1/TPH2 ratio in the hippocampus: did not alter the IDO1/TPH2 ratio

## CC(=O)Nc1ccc(O)cc1 [acetaminophen, N-acetyl-para-aminophen]
[1]; [5]
  mechanical allodynia (ipsilateral; FIG. 6F): significantly reduced; also recorded: attenuated
  thermal hyperalgesia (FIG. 6G): significantly reduced; also recorded: attenuated
[2]
  depressive behavior (immobility time in FST; FIG. 6H): did not acutely reverse depressive behavior
[2]; listed as APAP
  depressive behavior (immobility time in FST; FIG. 6H): did not change the immobility time in FST
IDO1 [4]
  hippocampal IDO1 mRNA level (FIG. 6I): nor did it alter the IDO1 mRNA level
IDO1 [4]; listed as APAP
  hippocampal IDO1 mRNA level (FIG. 6I): not reversed
